{"source": "patent US9066938B2", "about": "“GPBP-1 inhibition and its therapeutic use” (Fibrostatin S.L., priority 2012, dated 2015)", "key": {"[1]": {"system": "ovarian cancer cells (OVCAR-3)", "experiment": "Response of OVCAR-3 ovarian cancer cells to T12", "assay_type": "cell-based", "conditions": "cells that did not increase GPBP expression in response to doxorubicin"}, "[2]": {"system": "PARP cleavage in A549 cells", "experiment": "Flow cytometry of cleaved PARP (caspase-3-mediated apoptosis) in A549 cells", "assay_type": "cell-based, human", "conditions": "doxorubicin 1 μM, T12 50 μM, 36 h", "protocol": "FIG. 5. T12 enhances doxorubicin-induced caspase 3-mediated apoptosis. A549 cells were incubated with doxorubicin (1 μM) and/or T12 (50 μM) for 36 h. Subsequently, cells were stained with a PE conjugated antibody specific for human PARP-cleaved fragments and further analyzed by flow cytometry. Data are expressed as fold respect to untreated control cells. Shown is a representative experiment.\nCaspase-3 activation in A549 cells was evaluated by flow cytometry using a human anti-cleaved PARP antibody conjugated to PE (BD Biosciences). Briefly, after treatment, the cells were collected by centrifugation and suspended in Perm/Wash™ (BD Biosciences) buffer for 20 min, washed and then incubated for 30 min with the antibody. Subsequently, the cells were rinsed and further analyzed by flow cytometry (BD FacsVerse™ cytometer, BD Biosciences)."}, "A549 cells": {"system": "A549 cells", "assay_type": "cell-based", "protocol": "FIG. 2. […] Cells were seeded in 96-well plates and treated with the indicated compound combinations. The cellular viability (cell number) was measured with alamarBlue® and arbitrary units of fluorescence after 36 h of treatment (vertical axis).\nFIG. 7. […] A549 cells were seeded on 96-well culture plates and after 4 h were treated with the indicated concentrations of doxorubicin in absence or presence of T12 (50 μM) and/or CFTR-inhibitor-172 (25 μM). Cells were cultured for additional 36 h and cell viability assessed as in FIG. 2.\nA549 human lung adenocarcinoma cancer cells (CLS Cell Lines Service) were used as an ex vivo model for the assessment of anti-tumor activity of specific compounds. Unless otherwise indicated A549 cells were cultured in DMEM: Ham's F12 medium supplemented with 2 mM L-glutamine and 10% fetal bovine serum. A549 cells resistant to doxorubicin (A549-DR) were obtained treating cells with 1 μM for 4 weeks. A549 cells were transfected with a plasmid that expresses GPBP-1 and further selected with G418 (Invitrogen) to obtain a cell line (A549-GPBP) that constitutively expresses GPBP-1.\nCytotoxicity assays were performed with alamarBlue® reagent (Invitrogen) according to manufacturer's instructions. A549 cells were seeded on 96-well culture plates (7,500 cells/well) and allowed to settle during 4 h. Then, cells were cultured with individual peptidomimetics at concentrations ranging from 0 to 50 μM, in presence of doxorubicin at concentrations ranging from 0 to 10 μM for 36 h. JLSM cells were harvested by treatment with 0.25% trypsin (Lonza) and plated on collagen I coated 96-well black culture plate (Perkin Elmer) at a density of 10.000 cells per cm^2. After 4 h settling, cells were treated with different peptidomimetics (with or without doxorubicin) for 36 h. Subsequently alamarBlue® reagent was added and incubation maintained for 3 h. Fluorescence was measured using 560EX nm/590EM nm filter settings with a SpectraMax GeminiXPS (Molecular Devices). Blank wells containing media were used to determine background fluorescence.\nThe activity shown for each compound in Table 1 is the factor by which doxorubicin LC50 is reduced by the compound at a 50-μM concentration in A549 cell cultures. […] The symbols −, −/+, +, ++, +++, ++++ in the third column are used to show relative activities of compounds in a simplified way."}, "[3]": {"system": "CDKN1A (p21) and DDIT3 (CHOP) genes", "experiment": "qPCR of CDKN1A (p21) and DDIT3 (CHOP) mRNA in A549 cells", "assay_type": "cell-based, human", "conditions": "doxorubicin 1 μM, T12 50 μM, 24 h", "protocol": "FIG. 3. T12 enhances doxorubicin-induced expression of CDKN1A (p21) and DDIT3 (CHOP) genes in A549 cells. Cells were treated with doxorubicin (1 μM) and/or T12 (50 μM) for 24 h. Total RNA was isolated, reverse-transcribed, and CDKN1A (p21) and DDIT3 (CHOP) mRNA levels assessed by qPCR using TaqMan™ commercial probes and primers. Results are expressed as relative quantity (RQ) respect to untreated cells. A representative assay is shown.\nTotal RNA from cell samples was extracted using Ilustra RNAspin™ Mini (Ge Healthcare) according to the manufacturer's instructions. One μg of total RNA from each sample was converted to cDNA (RT) using the High Capacity cDNA Reverse Transcription Kit (Applied Biosystems). For Real-Time PCR (qPCR), 1.5 μl of cDNA was mixed with TaqMan™ Gene Expression Master Mix and the specific TaqMan™ probes and primers for COL4A3BP/GPBP, DDIT3/CHOP, CDKN1A/p21, PROM1/CD133, NANOG, MMP10 and HPRT1, all from Applied Biosystems. Hypoxanthine-guanine phosphoribosyltransferase (HPRT1) primer was used as endogenous control. qPCR was performed on a StepOnePlus™ Real-Time PCR system (Applied Biosystems) according to manufacturer's recommendations. The relative levels of mRNAs were calculated with the ΔΔCt method using untreated samples as reference (the comparative Ct method)."}}}
{"smiles": "COc1ccc(-c2ccc(-c3cccc(C)c3)c(C)c2)c(CCC(=O)O)c1", "note": "[T12, 3-[4″-methoxy-3,2′-dimethyl-(1,1′;4′,1″)terphenyl-2″-yl] propionic acid]", "values": [{"measurement": "responsiveness of OVCAR-3 cells to the compound", "setting": "[1]", "value": "not responsive"}, {"measurement": "doxorubicin-induced PARP cleavage", "setting": "[2]", "value": "enhanced"}, {"measurement": "A549 cell viability, compound without doxorubicin", "setting": "A549 cells; 36 h, alamarBlue", "value": "did not alter cell viability"}, {"measurement": "Activity as enhancer of doxorubicin-induced cell death, relative activity symbol", "setting": "A549 cells; compound at 50 μM, A549 cell cultures", "value": "+++"}, {"measurement": "effect on doxorubicin LC50 for A549 cells", "setting": "A549 cells; compound combined with doxorubicin", "value": "reduced doxorubicin LC50 for A549 cells in a dose-dependent manner"}, {"measurement": "induction of CDKN1A (p21) and DDIT3 (CHOP) expression together with doxorubicin", "setting": "[3]", "value": "synergistic"}]}
